From the supplement of paper PMC10307832

Tests used:
Assay in all cases: relative viability (nuclei count vs DMSO), 5 days (fraction); higher = more cells survive
[1] = compound: C1COCCN1C2=NC(=NC3=C2OC4=C3C=CC=N4)C5=CC(=CC=C5)NC(=O)C6=CN=C(C=C6)N
Procedure, shortened: (§1)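 Cells of lung cancer lines were placed in 1536-well plates and kept overnight at 37 °C. Pinning then delivered five library-drug doses (not always all listed), spaced by √10, onto plates anchored with vehicle, and the cells were left 5 days without changing medium. One step fixed, permeabilised and stained them with Hoechst, and MetaXpress counted nuclei in 4× images. Viability, as a median over plates, is treated-well nuclei divided by vehicle-well nuclei, with acceptance only at control CV below 25% and at least one doubling.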

SGI-1776 = compound: CN1CCC(CNc2ccc3ncc(-c4cccc(OC(F)(F)F)c4)n3n2)CC1 [SGI-1776]
Procedure, shortened: as §1

Entinostat = compound: Nc1ccccc1NC(=O)c1ccc(CNC(=O)OCc2cccnc2)cc1 [Entinostat]
Procedure, shortened: as §1

[2] = compound: C1COCCN1C2=NC(=NC3=C2OC4=C3C=CC=N4)C5=CC(=CC=C5)NC(=O)C6=CN=C(C=C6)N + Cc1nc(NC(=O)N2CCC[C@H]2C(N)=O)sc1-c1ccnc(C(C)(C)C(F)(F)F)c1 [Alpelisib] (partner 2 µM)
Procedure, shortened: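 Dosing by pin tool came one day after lung cancer cell lines were seeded in 1536-well plates, using either one drug or a fixed anchor-drug dose plus five library-drug doses (not always all listed) in √10 steps. After 5 days, nuclei were counted on 4× images. Relative viability is treated-well nuclei count divided by vehicle-well nuclei count, and values are medians of duplicate plates.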

Row | Cell Line | relative viability ([1]; 0.02 µM) | relative viability ([1]; 0.06325 µM) | relative viability ([1]; 0.2 µM) | relative viability ([1]; 0.6325 µM) | relative viability ([1]; 2 µM) | relative viability (SGI-1776; 0.08 µM) | relative viability (SGI-1776; 0.8 µM) | relative viability (SGI-1776; 2.53 µM) | relative viability (SGI-1776; 8 µM) | relative viability (Entinostat; 0.02 µM) | relative viability (Entinostat; 0.06325 µM) | relative viability (Entinostat; 0.2 µM) | relative viability (Entinostat; 0.6325 µM) | relative viability (Entinostat; 2 µM) | relative viability ([2]; first compound 0.02 µM) | relative viability ([2]; first compound 0.06325 µM) | relative viability ([2]; first compound 0.2 µM) | relative viability ([2]; first compound 0.6325 µM) | relative viability ([2]; first compound 2 µM)
1 | NCI-H1395 | 0.846 | 0.935 | 0.724 | 0.801 | 0.821 | 1.04 | 1.04 | 0.827 | 0.621 | 1.1 | 1.15 | 0.962 | 0.745 | 0.601 | 1.03 | 1.03 | 0.998 | 1.45 | 0.89
2 | NCI-H650 | 0.958 | 0.875 | 0.918 | 0.952 | 0.849 | 0.935 | 0.955 | 0.997 | 0.677 | 1.15 | 1.02 | 0.939 | 0.941 | 0.308 | 1.07 | 1.12 | 1.06 | 1.04 | 0.824
3 | NCI-H661 | 0.989 | 1.04 | 0.978 | 1 | 0.813 | 1.02 | 1.04 | 1.06 | 0.974 | 1 | 0.999 | 0.911 | 0.809 | 0.664 | 0.703 | 0.698 | 0.664 | 0.531 | 0.728
4 | NCI-H1734 | 0.994 | 1.06 | 0.929 | 0.931 | 0.613 | 0.946 | 0.945 | 1.04 | 0.842 | 1.04 | 1.16 | 1.04 | 0.862 | 0.628 | 0.722 | 0.684 | 0.616 | 0.688 | 0.598
5 | EKVX | 1.02 | 1.07 | 0.963 | 1.01 | 0.825 | 1.12 | 1.1 | 0.989 | 0.895 | 1.02 | 1.11 | 0.894 | 0.686 | 0.444 | 0.838 | 0.787 | 0.94 | 0.867 | 0.572
6 | EBC-1 | 0.911 | 1.16 | 0.936 | 0.964 | 0.576 | 1.04 | 0.952 | 0.971 | 0.67 | 1.06 | 1.02 | 0.865 | 0.306 | 0.165 | 0.653 | 0.728 | 0.742 | 0.713 | 0.478
7 | NCI-H520 | 0.857 | 1.12 | 1.05 | 0.921 | 0.659 | 0.998 | 1.18 | 1 | 0.832 | 1 | 1.07 | 0.934 | 0.9 | 0.792 | 0.914 | 0.923 | 0.971 | 1.02 | 0.406
8 | LOU-NH91 | 0.955 | 1.01 | 0.948 | 0.925 | 0.897 | 1.02 | 1.03 | 0.969 | 0.713 | 1.05 | 1.11 | 1 | 0.897 | 0.739 | 0.696 | 0.728 | 0.768 | 0.749 | 0.667
9 | COR-L23 | 0.981 | 1.2 | 1.18 | 1.09 | 0.681 | 1.06 | 1.07 | 1.05 | 0.883 | 1 | 1.02 | 0.904 | 0.555 | 0.227 | 0.958 | 0.876 | 0.844 | 0.868 | 0.589
10 | NCI-H1437 | 0.978 | 1 | 0.957 | 0.995 | 0.56 | 1.02 | 1.04 | 0.972 | 0.887 | 0.952 | 0.652 | 0.476 | 0.34 | 0.237 | 0.952 | 1.09 | 0.788 | 0.962 | 0.423
11 | NCI-H1703 | 0.805 | 0.975 | 0.76 | 0.685 | 0.505 | 0.909 | 0.796 | 0.588 | 0.218 | 1.05 | 1.3 | 1.33 | 1.03 | 0.646 | 0.282 | 0.315 | 0.288 | 0.289 | 0.201
12 | EPLC-272H | 0.907 | 0.987 | 0.889 | 0.715 | 0.717 | 1.05 | 1.1 | 1.29 | 0.766 | 0.985 | 0.91 | 0.883 | 0.406 | 0.296 | 0.972 | 0.883 | 0.974 | 0.967 | 0.673
13 | NCI-H1666 | 1.08 | 0.994 | 0.975 | 0.826 | 0.764 | 0.98 | 1.02 | 0.98 | 0.899 | 1.1 | 1.05 | 1.08 | 0.799 | 0.514 | 1.02 | 0.906 | 0.794 | 0.775 | 0.549
14 | IA-LM | 0.895 | 0.924 | 0.716 | 0.847 | 0.442 | 0.999 | 1.02 | 0.97 | 0.87 | 0.975 | 1.01 | 1.08 | 0.887 | 0.651 | – | 0.853 | 0.582 | 0.609 | 0.43
15 | HCC-44 | 0.986 | 0.919 | 0.97 | 1.07 | 0.959 | 1.02 | 0.957 | 0.93 | 0.962 | 0.99 | 0.858 | 0.773 | 0.414 | 0.275 | 0.803 | 0.879 | 1.04 | 0.807 | 0.499
16 | RERF-LC-KJ | 1.01 | 1.05 | 0.973 | 0.928 | 0.743 | 1.03 | 1 | 0.957 | 0.843 | 0.952 | 0.986 | 0.922 | 0.631 | 0.297 | 0.809 | 0.946 | 0.828 | 0.861 | 0.616
17 | LU99A | 0.966 | 0.956 | 0.859 | 0.777 | 0.564 | 0.948 | 1.03 | 0.964 | 0.861 | 0.918 | 0.93 | 0.871 | 0.69 | 0.603 | 0.608 | 0.46 | 0.41 | 0.379 | 0.284
18 | PC-3 [JPC-3] | 1.06 | 1.05 | 1.06 | 1.03 | 0.927 | 1.07 | 1.09 | 1.01 | 0.805 | 1.03 | 1.01 | 1.02 | 0.57 | 0.488 | 0.976 | 1.05 | 1.1 | 0.991 | 0.829
19 | NCI-H2126 | 0.985 | 0.981 | 1.01 | 1.01 | 0.745 | 0.967 | 1.06 | 0.983 | 0.91 | 1.04 | 1.06 | 0.951 | 0.618 | 0.503 | 0.778 | 0.726 | 0.732 | 0.753 | 0.627
20 | LXF-289 | 1.06 | 1.03 | 1.07 | 0.995 | 0.8 | 1.01 | 1.05 | 1.05 | 0.959 | 1 | 0.978 | 0.952 | 0.711 | 0.63 | 1.12 | 1.09 | 1.02 | 1 | 0.785
21 | BEN | 1.03 | 0.917 | 1.02 | 0.934 | 0.837 | 0.984 | 0.955 | 0.819 | 0.812 | 0.97 | 1.04 | 0.835 | 0.653 | 0.357 | 1.07 | 1.04 | 1.01 | 0.931 | 0.613
22 | SW 1573 | 0.954 | 1.09 | 1.03 | 0.918 | 0.611 | 1.06 | 0.965 | 0.959 | 0.754 | 0.998 | 1.11 | 1.09 | 1 | 0.874 | 0.659 | 0.912 | 0.734 | 0.699 | 0.576
23 | NCI-H1993 | 0.981 | 0.953 | 0.797 | 0.946 | 0.736 | 0.926 | 1.04 | 0.924 | 0.733 | 0.986 | 1.02 | 0.899 | 0.805 | 0.645 | 0.651 | 0.624 | 0.691 | 0.697 | 0.595
24 | SK-LU-1 | 1.11 | 1.12 | 1.03 | 1.01 | 0.554 | 1.23 | 1.09 | 1.03 | 0.839 | 1.01 | 1.08 | 1.02 | 0.698 | 0.57 | 0.956 | 1.04 | 0.879 | 0.749 | 0.473
25 | A549 | 1.05 | 1.1 | 0.97 | 0.991 | 0.471 | 0.992 | 1.01 | 0.959 | 0.795 | 1.02 | 1.03 | 0.901 | 0.842 | 0.508 | 0.64 | 0.793 | 0.644 | 0.63 | 0.346
26 | NCI-H460 | 1.05 | 1.09 | 0.974 | 1.03 | 0.477 | 1.01 | 0.994 | 0.988 | 0.947 | 1.02 | 0.986 | 0.842 | 0.307 | 0.0693 | 0.393 | 0.5 | 0.395 | 0.349 | 0.0947
27 | LCLC-97TM1 | 1.03 | 0.99 | 0.994 | 1.1 | 0.905 | 1.01 | 1.03 | 1.11 | 1.01 | 1.1 | 1.11 | 1.02 | 0.732 | 0.702 | – | 0.265 | 0.208 | 0.313 | 0.249
28 | HCC-78 | 0.935 | 1.06 | 0.966 | 0.892 | 0.832 | 1.09 | 1.04 | 0.975 | 0.866 | 0.991 | 1.09 | 0.65 | 0.467 | 0.343 | 0.34 | 0.331 | 0.378 | 0.324 | 0.318
29 | NCI-H1975 | 0.881 | 0.968 | 0.895 | 0.874 | 0.684 | 1.06 | 1 | 0.925 | 0.79 | 0.942 | 0.826 | 0.784 | 0.466 | 0.267 | 0.677 | 0.705 | 0.548 | 0.567 | 0.352
